Like-named read-outs stand apart in the source and are kept apart here.
What was measured:
MDA-231 cells [1] = experiment: Flow cytometric cell cycle analysis (propidium iodide); assay type: cell-based, human; conditions: 100 nM CPT, 24 h
CPT-sensitive cells = conditions: very high doses of CPT; cited from earlier work
p34^cdc2 in HeLa cells = conditions: CPT treatment; cited from earlier work
CPT-resistant cells = conditions: low doses of CPT; cited from earlier work
[2] = test system: normal bovine venular endothelial cells (BVEC); experiment: cells; conditions: Bos taurus, Endothelial cell, 24 h, read-out: dose inhibiting growth by 50% (CPT alone)
in vivo = conditions: rat, iv, 10 mg/kg
MDA-231 cells [3] = experiment: cells; assay type: cell-based, human; conditions: Homo sapiens
Text: (§1) . Cell lines and Culture.
(§2) Drugs and Chemical Reagents. […] . […] All other chemicals were reagent grade.
(§3) Drug Treatment and Survival Curves.
(§4) Pharmacol. 28:370-376 (1991). […] .
(§5) Drug Combinations and Data Analysis. […] . Pharmacol. (in press, 1997). […] Enzyme Regul. […] Enzyme Regul. 22:27-55 (1984).
(§6) . […] Enzyme Regul. 22:27-55 (1984).

GI 101A cells [4] = experiment: cells; assay type: cell-based, human; conditions: Homo sapiens, 24 h
Text: as §1, §2, §3, §4, §5, §6

GI 101A cells [5] = conditions: cited from earlier work
MDA-231 cells [6] = conditions: cited from earlier work
GI 101A cells [7] = experiment: Flow cytometric cell cycle analysis (propidium iodide); assay type: cell-based, human; conditions: 100 nM CPT, 24 h
[8] = test system: normal endothelial cells (BVEC); experiment: as above; assay type: cell-based, bovine; conditions: 100 nM CPT, 24 h
[9] = test system: murine bone marrow cells (CFU-GM); experiment: In vitro bone marrow cell protection assay (CFU-GM colonies); assay type: cell-based, C57/BL mice; conditions: Mus musculus, 0-1000 nM, combination 1:1 molar ratio
[10] = basic side-chain at position 9 forms salts with acids; cited from earlier work
HMEC (p53+) = experiment: Crystal violet staining growth inhibition assay, median effect analysis; conditions: Homo sapiens, 24 h, read-out: IC50 HMEC (p53+)
MDA-231 cells [11] = experiment: ELISA BrdU incorporation assay (DNA synthesis); assay type: cell-based, human; conditions: TPT 10 and 50 nM, 24 hr
MDA-231 cells [12] = experiment: FACS cell cycle / BrdU DNA synthesis assay; assay type: cell-based, human; conditions: TPT 10, 50, 100 nM, 24 h, FIG. 8A
HMEC/E6 (p53-) = experiment: Crystal violet staining growth inhibition assay, median effect analysis; assay type: cell-based; conditions: Homo sapiens, 24 hr treatment
Text: Cytotoxicity and Bromodeoxyuridine incorporation assays. […] Enzyme Regul.

MDA-231 (mutant p53) = experiment: as above; conditions: Homo sapiens, MDA-MB-231, 24 h, read-out: IC50 MDA-231 (p53-)
[13] = test system: DNA damage-dependent G2 -checkpoint; conditions: cited from earlier work

CC[C@@]1(O)C(=O)OCc2c1cc1n(c2=O)Cc2cc3ccccc3nc2-1 [CPT, Camptothecin]
cell cycle effect of CPT alone (MDA-231 cells [1]): caused an arrest of tumor as well as normal cells in S phase | 3H-thymidine incorporation (CPT-sensitive cells): continued to incorporate ^3 H-thymidine | p34cdc2 activity (p34^cdc2 in HeLa cells): loss in activity of p34^cdc2 in HeLa cells | 3H-thymidine incorporation (CPT-resistant cells): stopped incorporating ^3 H-thymidine | IC50 [2]: > 1000 nM | half-life (in vivo; in vivo): 1.42 h | IC50 (MDA-231 cells [3]; MDA-MB-231, 24 h, read-out: 50% inhibition of cell growth (CPT alone)): 200 nM | IC50 (MDA-231 cells [3]; MDA-MB-231, 24 h, read-out: median-effect dose, Dm, for CPT): 28 nM | IC50 (MDA-231 cells [3]; MDA-MB-231, read-out: IC50 of CPT in the absence of UCN-01 (so in the source)): 5 nM | IC50 (GI 101A cells [4]; read-out: 50% inhibition of cell growth (CPT alone)): 300 nM | IC50 (GI 101A cells [4]; read-out: median-effect dose, Dm, for CPT): 104 nM | cell cycle effect of CPT at low and high doses (GI 101A cells [5]): in the G2 phase while at high doses cells are arrested in the S phase | cell cycle effect of CPT at low and high doses (MDA-231 cells [6]): in the G2 phase while at high doses cells are arrested in the S phase | cell cycle effect of CPT alone (GI 101A cells [7]): caused an arrest of tumor as well as normal cells in S phase | cell cycle effect of CPT alone [8]: caused an arrest of tumor as well as normal cells in S phase

CC[C@@]1(O)C(=O)OCc2c1cc1n(c2=O)Cc2cc3c(CN(C)C)c(O)ccc3nc2-1 [TPT, (S)-10[(dimethylamino)methyl]-4-ethyl-4,9-dihydroxy-IH-pyrano[3',4': 6,7]ind olizino[1,2-b]quinolone-3,14(4H,12H)-dione]
IC50 [9]: 19 nM | water solubility [10]: water-soluble | IC50 (HMEC (p53+)): 6 nM | BrdU incorporation (MDA-231 cells [11]): stopped incorporating BrdU | cell cycle effect of TPT by itself (MDA-231 cells [12]): induced an accumulation of MDA-231 cells in S phase | half-life (in vivo; plasma): 1.53 h | IC50 (HMEC/E6 (p53-)): 34 nM | IC50 (MDA-231 (mutant p53)): 37 nM

Cn1c(=O)c2c(ncn2C)n(C)c1=O [caffeine]
effect on DNA damage-dependent G2 checkpoint [13]: override the DNA damage-dependent G2 -checkpoint and enhance drug-induced cytotoxicity

From US6214821A, “Methods and composition for the inhibition of cancer cells” (Washington State University Research Foundation, priority 1999, dated 2001)
